The results in this text go back to patent US20210353633A1, “CYCLODEXTRIN-BASED FORMULATION OF A BCL-2 INHIBITOR” (LES LABORATOIRES SERVIER, priority 2018, published 2021).

Values after ≈ are worked out from the molar mass of the structure shown. Read-outs that look alike come from different tables or passages of the source.

Holding throughout (type): physicochemical
Data set [1] can be described thus: pH, appearance and precipitation pH of solutions diluted in 250 mL of glucose 5% solution (G5). The note with it: for pH: hydrogen sulfate salt in Cavitron W7H5; for Precipitation pH (by light obscuration technique) / Precipitation pH (by visual observation): pH increased with NaOH 0.01N. As for the experimental part:
The Compound A used is in the form of a hydrogen sulfate salt. Invisible particulate contamination of the solutions was also controlled by light obscuration technique.
A mother solution containing a dose of 200 mg/mL of Cavitron™ W7H5 and 20 mg/mL of Compound A (expressed for the free base) is prepared by dissolving a lyophilisate as described in Example 5 in the necessary amount of water. The solution so obtained is then diluted by means of glucose 5% solution (G5).
The pH of the solutions obtained is measured and the appearance of the solutions is observed. The pH is increased using NaOH 0.01N solution until a precipitation is observed.

Data set [2] can be described thus: Physical and chemical stability over time of solutions diluted in G5. The note with it: 12, 20 and 1000 mg/250 mL of G5. As for the experimental part:
Moreover, studies of physical stability over time (24 h, 48 h and 72 h) are carried out on the solutions obtained hereinbefore. In particular, these studies include the particle count of the tested solutions in accordance with the method described in the text of the European Pharmacopoeia 2.9.19. Tests 1.B (i.e. counting of the sub-visible particles by light obscuration).
Studies of chemical stability over time (24 h, 48 h and 72 h) are also put in place in order to ensure the stability of the product under laboratory light (1500 lux) and various heat conditions (ambient temperature, 5° C.). These studies include especially measurements of the amount of active ingredient and degradation products. Pharmaceutical compositions of Compound A solubilised by means of a Cavitron™ W7H5 solution diluted in G5 solution were tested for the following concentrations: 12 mg/250 mL, 20 mg/250 mL and 1000 mg/250 mL of G5 solution.

Data set [3] in a line: pH of precipitation by addition of NaOH to a HP-β-cyclodextrin solution (Example 9). Particulars: hydrogen sulfate salt in Cavitron W7H5 solution; 0.5M NaOH added; visual; duplicate. As for the experimental part:
The objective of this study is to define the pH of precipitation of Compound A (hydrogen sulfate salt) from HP-β-cyclodextrin solution to better understand the risk of precipitation and select the pH of the drug product.
Weigh 10 g of Cavitron™ W7H5 in a 50 mL flask. Add 26 g of water and then solubilize the Cavitron™ W7H5 under magnetic agitation. Carefully add 1.14 g of Compound A under magnetic agitation and then add 6.5 mL of water. Solubilize Compound A using magnetic agitation at 60° C. Once totally solubilized, cool down the solution at room temperature then rinse the upper edges of the flask with 0.5 mL of water. The total amount of water added is […].
Slowly add 0.5M NaOH solution under continuous agitation (add 100 μL at each addition step) up to a precipitation is visually observed. The experiment was performed in duplicate. The precipitated solid is separated and dried to be analyzed by RMN, XRPD, XRF, and HPLC.

Data set [4] is described as follows: Solubility test of Compound A, H2SO4 in a HP-β-cyclodextrin as a function of the pH. Particulars: for solubility at 24 h: aqueous HP-β-cyclodextrin (Cavitron W7HP5) solution, aqueous with cosolvent or surfactant or cyclodextrin, thermodynamic from solid, read-out: Solubility after 24 h. As for the experimental part:
The solubility of ‘Compound A, H2SO4’ was studied in the presence of a HP-β-cyclodextrin as a function of the pH.
10 g of the cyclodextrin studied (Cavitron™ W7HP5) are placed in a 50 mL graduated flask. 40 mL of water are then added. The whole is placed under magnetic stirring. The volume is then made up with water to 50 mL.
Approximately 856.7 mg of ‘Compound A, H2SO4’ are weighed. 30 mL of the medium containing the carrier to be tested, that is to say Cavitron™ W7HP5, are then added. The whole is placed under magnetic stirring for 24 hours. The suspension so obtained is passed through a 0.2 μm filter (PALL—PES membrane—diameter 25 mm) before being analysed by HPLC.
In other tests, the pH of the solution is then modified by means of 0.1 N NaOH solution until values of 4 and 8.8 are reached, before the analysis by HPLC chromatography is carried out.

The mark [5] stands for this setting: 12 mg of Compound A in 250 mL of G5.
Where [6] appears, read: 25 mg of Compound A in 250 mL of G5.
Where [7] appears, read: 50 mg of Compound A in 250 mL of G5.
Setting [8] is: 100 mg of Compound A in 250 mL of G5.
The mark [9] stands for this setting: 250 mg of Compound A in 250 mL of G5.
The mark [10] stands for this setting: 500 mg of Compound A in 250 mL of G5.
[11] abbreviates: 1000 mg of Compound A in 250 mL of G5.

As for `Cc1c(N(C(=O)c2cc(-c3cc(Cl)ccc3C(=O)N3Cc4ccccc4C[C@H]3CN3CCOCC3)n(C)c2C)c2ccc(O)cc2)cc(C#N)n1C` [Compound A, 5-(5-chloro-2-{[(3S)-3-(morpholin-4-ylmethyl)-3,4-dihydroisoquinolin-2(1H)-yl]carbonyl}phenyl)-N-(5-cyano-1,2-dimethyl-1H-pyrrol-3-yl)-N-(4-hydroxyphenyl)-1,2-dimethyl-1H-pyrrole-3-carboxamide], the “Appearance of the solution after 15 min” value in data set [1] (setting [5]), in data set [1] (setting [6]), in data set [1] (setting [7]), in data set [1] (setting [8]), in data set [1] (setting [9]) and in data set [1] (setting [10]) was “clear” throughout. Moreover, the “Appearance of the solution after 15 min” value in data set [1] (setting [11]) was “clear”. In addition, the pH in data set [1] (setting [5]) was 3.7-4.310; in data set [1] (setting [6]), 3.9-4.240; in data set [1] (setting [7]) it was 3.8-4.158; in data set [1] (setting [8]), 3.8-4.033; in data set [1] (setting [9]), 3.7-3.809; in data set [1] (setting [10]) it was 3.5-3.613. For the same compound, in data set [1] (setting [11]), the pH is on record as 3.3-3.401. Moreover, the “Precipitation pH (by light obscuration technique)” value in data set [1] (setting [5]) is 5.4; in data set [1] (setting [6]), 4.8; in data set [1] (setting [7]), 4.5; in data set [1] (setting [8]), 4.3; in data set [1] (setting [9]), 4.1; in data set [1] (setting [10]), 4.0. Also, the “Precipitation pH (by light obscuration technique)” value in data set [1] (setting [11]) came out at 4.0. The “Precipitation pH (by visual observation)” value in data set [1] (setting [5]) is recorded as 8.609; in data set [1] (setting [6]), 5.220; in data set [1] (setting [7]), 5.143; in data set [1] (setting [8]), 4.872; in data set [1] (setting [9]), 4.388; in data set [1] (setting [10]) it was 4.378. The “Precipitation pH (by visual observation)” value in data set [1] (setting [11]) is on record as 4.254. For the same compound, the “precipitation when diluted in G5 solution” value in data set [1] (concentrations between 12 and 1000 mg/250 mL of G5 solution, solubilised by Cavitron W7H5 solution) is recorded as “do not precipitate”. Besides, the chemical degradation product result in data set [2] (laboratory light (1500 lux), ambient temperature and 5° C., during 72 h) is given as “No significant chemical degradation product was observed”. The “rate of sub-visible particles (light obscuration method)” value in data set [2] (up to 72 h) is listed as “in accordance with the requirement of the European Pharmacopoeia 2.9.19”. In data set [3], the “pH at which drug precipitation was observed” value was found to be 4.27.
`Cc1c(N(C(=O)c2cc(-c3cc(Cl)ccc3C(=O)N3Cc4ccccc4C[C@H]3CN3CCOCC3)n(C)c2C)c2ccc(O)cc2)cc(C#N)n1C` [Compound A, H2SO4, 5-(5-chloro-2-{[(3S)-3-(morpholin-4-ylmethyl)-3,4-dihydroisoquinolin-2(1H)-yl]carbonyl}phenyl)-N-(5-cyano-1,2-dimethyl-1H-pyrrol-3-yl)-N-(4-hydroxyphenyl)-1,2-dimethyl-1H-pyrrole-3-carboxamide]: the “pH from which a precipitate is visually observed” value in data set [4] (Cavitron W7HP5 200 mg/mL, pH raised with 0.1 N NaOH) is listed as 3.2. For the same compound, the solubility at 24 h was 17.1 mg/mL in data set [4] (Cavitron W7HP5 200 mg/mL + 0.1N NaOH, pH 4.01); 0.99 mg/mL in data set [4] (Cavitron W7HP5 200 mg/mL + 0.1N NaOH, pH 8.8); 21.6 mg/mL (≈ 30.1 mM) in data set [4] (Cavitron W7HP5 200 mg/mL, pH 1.86 (without adjustment)).
